Results from patent US20170044597A1, “ASSAY METHOD AND KIT FOR NUCLEIC ACID BINDING PROTEIN” (Hiroshima University, priority 2008, published 2017).

Tests used:
[1] = molecular target: T1, recombinant human NFκB p50 (Homo sapiens, UniProt P19838); test: Detection of NF-κB (p50) inhibitory effect of aurothioglucose (Example 5); assay type: binding; details: 0 to 5 nmol aurothioglucose, 0.5 pmol NFκB p50, duplexes 31F/42 and 32D/41, 25° C. 30 minutes, relative to absence of aurothioglucose (FIG. 9)
T1 construct: recombinant human NFκB p50 (Promega Corp.); purchased Promega Corp
T1 sequence (P19838 1-433 limits assumed): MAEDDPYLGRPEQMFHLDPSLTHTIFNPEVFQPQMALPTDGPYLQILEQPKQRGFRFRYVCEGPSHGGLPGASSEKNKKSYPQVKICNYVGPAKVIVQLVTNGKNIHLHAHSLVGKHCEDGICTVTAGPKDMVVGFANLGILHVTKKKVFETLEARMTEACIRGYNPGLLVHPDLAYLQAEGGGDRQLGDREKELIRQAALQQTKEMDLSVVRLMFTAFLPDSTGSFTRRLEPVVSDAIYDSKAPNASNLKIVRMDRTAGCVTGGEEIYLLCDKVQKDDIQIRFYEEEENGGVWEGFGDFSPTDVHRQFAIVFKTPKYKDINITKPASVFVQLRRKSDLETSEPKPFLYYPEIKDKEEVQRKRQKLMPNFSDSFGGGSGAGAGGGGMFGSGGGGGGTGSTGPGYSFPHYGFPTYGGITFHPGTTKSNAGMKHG
Text: A synthetic oligonucleotide NFkB-42 and a synthetic oligonucleotide NFkB-31-5F labeled at the 5′ terminus with fluorescein, or a synthetic oligonucleotide NFkB-41 and a synthetic oligonucleotide NFkB-32-3D labeled at the 3′ terminus with DABCYL were mixed to prepare duplexes 31F/42 and 32D/41 having a single-stranded terminus under the same conditions as in Example 1. The duplexes 31F/42 and 32D/41 have an NF-κB binding sequence.
(§1) To a mixed solution of 31F/42 and 05C/08 (50 fmol each), 0 to 5 nmol of aurothioglucose and 0.5 pmol of recombinant human NFκB p50 (Promega Corp.) were added, and further a mixed solution of 32D/41 and 06B/07 (200 fmol each) was added. The resulting solution was mixed and reacted at 25° C. for 30 minutes. […] The fluorescence values of fluorescein and Cy3 were measured using a fluorescence plate reader Ultra (Tecan Group Ltd.). The fluorescein was excited at 485 nm, and its fluorescence was measured at 535 nm. The Cy3 was excited at 535 nm and its fluorescence was measured at 595 nm.

[2] = tested on: SP1/oligonucleotide; test: Negative control of the screening system: strand exchange of a nucleic acid set that does not bind to NF-κB (Example 5); details: 0 to 5 nmol aurothioglucose, duplexes 05C/08 and 06B/07 as negative control, same reaction (FIG. 9)
Text: A synthetic oligonucleotide SP1-08 and a synthetic oligonucleotide SP1-05-5C3 labeled at the 5′ terminus with Cy3, or a synthetic oligonucleotide SP1-07 and a synthetic oligonucleotide SP1-06-3B1 labeled at the 3′ terminus with BHQ1 were mixed to prepare duplexes 05C/08 and 06B/07 having a single-stranded terminus under the same conditions as in Example 1. The duplexes 05C/08 and 06B/07 have an SP1 binding sequence.
as §1

[3] = tested on: NF-κB; details: Yang et al. FEBS letters 1995, 361, 89-96; cited from earlier work
[4] = molecular target: T2, recombinant human SP1 (Homo sapiens, UniProt P08047); test: Effect of mismatch introduction on suppression of strand exchange, SP1 (Example 4-1); assay type: binding; details: 40 fmol SP05C/08B, 2.5 pmol SP1, 80 fmol of the added duplex or single strand, 25° C. 120 minutes (FIG. 7)
T2 construct: purchased Promega Corp
T2 sequence (P08047 whole entry): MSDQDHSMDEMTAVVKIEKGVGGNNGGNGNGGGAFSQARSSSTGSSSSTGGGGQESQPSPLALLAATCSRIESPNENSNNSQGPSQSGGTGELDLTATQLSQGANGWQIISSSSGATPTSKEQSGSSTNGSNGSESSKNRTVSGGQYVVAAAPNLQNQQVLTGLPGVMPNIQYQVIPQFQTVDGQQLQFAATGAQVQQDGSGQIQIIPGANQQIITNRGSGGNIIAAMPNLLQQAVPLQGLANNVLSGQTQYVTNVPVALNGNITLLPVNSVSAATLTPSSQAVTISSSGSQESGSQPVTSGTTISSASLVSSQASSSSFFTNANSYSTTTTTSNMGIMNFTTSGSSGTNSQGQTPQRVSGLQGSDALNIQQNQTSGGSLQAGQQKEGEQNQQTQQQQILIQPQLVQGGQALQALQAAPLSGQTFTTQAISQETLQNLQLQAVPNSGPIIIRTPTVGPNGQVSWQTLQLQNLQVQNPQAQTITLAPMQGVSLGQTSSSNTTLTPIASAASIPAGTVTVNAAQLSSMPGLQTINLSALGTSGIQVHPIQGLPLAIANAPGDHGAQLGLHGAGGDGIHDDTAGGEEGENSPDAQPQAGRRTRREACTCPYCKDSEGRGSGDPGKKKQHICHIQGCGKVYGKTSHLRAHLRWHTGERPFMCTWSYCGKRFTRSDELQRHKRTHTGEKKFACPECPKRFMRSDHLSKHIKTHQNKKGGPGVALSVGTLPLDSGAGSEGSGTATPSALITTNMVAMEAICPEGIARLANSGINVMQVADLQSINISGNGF
Text: A synthetic oligonucleotide SP1-05-5C3 labeled at the 5′ terminus with Cy3 and a synthetic oligonucleotide SP1-08-3B1 labeled at the 3′ terminus with BHQ1 were mixed to prepare a duplex SP05C/08B having a single-stranded terminus under the same conditions as in Example 1. Moreover, synthetic oligonucleotides SP1-06 and SP1-07, synthetic oligonucleotides SP1-21 and SP1-22, or synthetic oligonucleotides SP1-23 and SP1-24 were mixed to prepare duplexes SP06/07, SP22/21, and SP24/23 having a single-stranded terminus under the same conditions as in Example 1. These duplexes have an SP1 binding sequence.
40 fmol of SP05C/08B and 2.5 pmol of recombinant human SP1 (Promega Corp.) were mixed into a reaction solution (10 mM HEPES-NaOH pH 7.9, 50 mM KCl, 0.1 mM EDTA, 5 mM DTT, 10% glycerol, 0.05% IGEPAL CA-630, 15 μL) and reacted at 25° C. for 30 minutes. 80 fmol of SP06/07, SP22/21, SP24/23, SP1-07, SP1-21, or SP1-23 was added thereto, and […] of the resulting mixture was then reacted at 25° C. for 120 minutes. The fluorescence value of Cy3 was measured using a fluorescence plate reader Ultra (Tecan Group Ltd.).

| Molecule | relative fluorescence value of the NF-κB/oligonucleotide complex [1] | relative fluorescence value of the SP1/oligonucleotide [2] | inhibition of NF-κB [3] | effect of addition of SP1 on increase in fluorescence value (Cy3) caused by strand exchange [4] |
| --- | --- | --- | --- | --- |
| OC[C@H]1O[C@H]([S-])[C@H](O)[C@@H](O)[C@@H]1O.[Au+] [aurothioglucose, Aurothioglucose] | decreased depending on the concentration of aurothioglucose | hardly influenced | known to inhibit NF-κB | – |
| SP1-07: synthetic oligonucleotide 5′ ATTCGATCGGGGCGGGGCGACGAGC AGGCTACTCTCTGACCG 3′ (SEQ ID NO: 31) (DNA ATTCGATCGGGGCGGGGCGACGAGCAGGCTACTCTCTGACCG; DNA, backbone and methylation of C not given here) | – | – | – | suppressed increase in fluorescence value |
